Test results published in PubChem BioAssay AID330 (DTP/NCI, 2004).
Toxic doses and inconclusive results are not listed.

Test system: P388 leukemia ip, CD2F1 mice, survival T/C
Assay: NCI In Vivo Anticancer Drug Screen. Data for tumor model P388 Leukemia (intraperitoneal) in CD2F1 (CDF1) mice
Settings: endpoint: median survival time, higher = longer survival
Method in brief: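 Mice carrying the transplanted tumor received test compound or vehicle. Survival was recorded in each group, and the value is the treated-group measurement divided by that of the vehicle-treated control group.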

[1] = dose: 6.25 mg/kg/injection, schedule: Q01DX009 (ip), vehicle: saline with Tween-80
[2] = dose: 12.5 mg/kg/injection, schedule: Q01DX009 (ip), vehicle: saline with Tween-80
[3] = dose: 25.0 mg/kg/injection, schedule: Q01DX009 (ip), vehicle: saline with Tween-80
[4] = dose: 50.0 mg/kg/injection, schedule: Q01DX009 (ip), vehicle: saline with Tween-80
[5] = dose: 100.0 mg/kg/injection, schedule: Q01DX009 (ip), vehicle: saline with Tween-80

CCCCCCCCCCCCCCCCCCCC
T/C (dose: 6.25 mg/kg/injection, schedule: Q01DX009 (ip), vehicle: other): 112 % of control | T/C (dose: 12.5 mg/kg/injection, schedule: Q01DX009 (ip), vehicle: other): 90 % of control | T/C (dose: 25.0 mg/kg/injection, schedule: Q01DX009 (ip), vehicle: other): 111 % of control | T/C (dose: 50.0 mg/kg/injection, schedule: Q04DX003 (ip), vehicle: other): 91 % of control | T/C (dose: 100.0 mg/kg/injection, schedule: Q04DX003 (ip), vehicle: other): 91 % of control

Cc1cnc(=O)[nH]c1NOCc1ccccc1
T/C (dose: 15.0 mg/kg/injection, schedule: Q01DX001 (ip), vehicle: saline): 98 % of control | T/C (dose: 30.0 mg/kg/injection, schedule: Q01DX001 (ip), vehicle: saline): 105 % of control | T/C (dose: 60.0 mg/kg/injection, schedule: Q01DX001 (ip), vehicle: saline): 100 % of control

COC1C(O)C(C)OC(OC2C(Oc3cccc4c(O)c5c(=O)oc6ccc(C)c7c(=O)oc(c34)c5c67)OC(C)C(O)C2O)C1O (centres undefined)
T/C (dose: 0.5 mg/kg/injection, schedule: Q01DX009 (ip), vehicle: saline with Tween-80): 108 % of control | T/C (dose: 4.0 mg/kg/injection, schedule: Q01DX009 (ip), vehicle: saline with Tween-80): 157 % of control | T/C [1]: 152 % of control | T/C (dose: 12.5 mg/kg/injection, schedule: Q01DX001 (sc), vehicle: Klucel (hydroxypropylcellulose) (HPC)): 100 % of control | T/C (dose: 12.5 mg/kg/injection, schedule: Q01DX001 (sc), vehicle: other): 97 % of control | T/C (dose: 12.5 mg/kg/injection, schedule: Q01DX005 (sc), vehicle: Klucel (hydroxypropylcellulose) (HPC)): 98 % of control | T/C (dose: 12.5 mg/kg/injection, schedule: Q01DX005 (sc), vehicle: other): 101 % of control | T/C [2]: 164 % of control | T/C (dose: 25.0 mg/kg/injection, schedule: Q01DX001 (sc), vehicle: Klucel (hydroxypropylcellulose) (HPC)): 102 % of control | T/C (dose: 25.0 mg/kg/injection, schedule: Q01DX001 (sc), vehicle: other): 100 % of control | T/C (dose: 25.0 mg/kg/injection, schedule: Q01DX005 (sc), vehicle: Klucel (hydroxypropylcellulose) (HPC)): 97 % of control | T/C (dose: 25.0 mg/kg/injection, schedule: Q01DX005 (sc), vehicle: other): 92 % of control | T/C [3]: 174 % of control | T/C (dose: 50.0 mg/kg/injection, schedule: Q01DX001 (sc), vehicle: Klucel (hydroxypropylcellulose) (HPC)): 98 % of control | T/C (dose: 50.0 mg/kg/injection, schedule: Q01DX001 (sc), vehicle: other): 109 % of control | T/C (dose: 50.0 mg/kg/injection, schedule: Q01DX005 (sc), vehicle: Klucel (hydroxypropylcellulose) (HPC)): 100 % of control | T/C (dose: 50.0 mg/kg/injection, schedule: Q01DX005 (sc), vehicle: other): 98 % of control | T/C [4]: 183 % of control | T/C [5]: 171 % of control

C/C(=C\Cl)CO
T/C [3]: 111 % of control | T/C [4]: 111 % of control | T/C [5]: 94 % of control

C=C(CC(=O)Nc1nc(C)c(C(=O)OC)s1)C(=O)O
T/C [2]: 107 % of control | T/C [3]: 100 % of control | T/C [4]: 105 % of control | T/C (dose: 50.0 mg/kg/injection, schedule: Q01DX009 (ip), vehicle: saline): 99 % of control | T/C (dose: 200.0 mg/kg/injection, schedule: Q01DX009 (ip), vehicle: saline): 96 % of control

CCO[Si](CCSC(=O)N(CCCl)CCCl)(OCC)OCC
T/C (dose: 100.0 mg/kg/injection, schedule: Q04DX002 (ip), vehicle: saline with Tween-80): 99 % of control | T/C (dose: 200.0 mg/kg/injection, schedule: Q04DX002 (ip), vehicle: saline with Tween-80): 98 % of control | T/C (dose: 400.0 mg/kg/injection, schedule: Q04DX002 (ip), vehicle: saline with Tween-80): 107 % of control

O=C(CO)c1ccc([N+](=O)[O-])cc1
T/C (dose: 1.56 mg/kg/injection, schedule: Q01DX009 (ip), vehicle: saline with Tween-80): 99 % of control | T/C (dose: 3.13 mg/kg/injection, schedule: Q01DX009 (ip), vehicle: saline with Tween-80): 101 % of control | T/C [1]: 106 % of control | T/C [2]: 116 % of control

NC(Cc1csc2ccc(Cl)cc12)C(=O)O (centres undefined)
T/C (dose: 50.0 mg/kg/injection, schedule: Q01DX001 (ip), vehicle: Klucel (hydroxypropylcellulose) (HPC)): 102 % of control | T/C (dose: 100.0 mg/kg/injection, schedule: Q01DX001 (ip), vehicle: Klucel (hydroxypropylcellulose) (HPC)): 100 % of control
